These results are taken from article PMC5114681, “Molecular Mechanism of Action of Antimalarial Benzoisothiazolones: Species-Selective Inhibitors of the Plasmodium spp. MEP Pathway enzyme, IspD” (Scientific Reports, 2016).

The test system of series [1] is A. thaliana IspD. Also noted: method as in PMID 24446431, PMID 21766403, PMID 22975264. The following applies: known IspD inhibitors, Fig. 2; cited from earlier work.
The subject of series [2] is MEP pathway. The experiment in a line: MEP metabolite profiling (LC-MS/MS of DOXP and MEcPP) in treated parasites. The conditions noted are these: 10 hours; for MEcPP levels compared to untreated parasites: 3 μM 8 or 5 μM FSM.
Series [3] deals with P. falciparum strain 3D7. The experiment in a line: Parasite growth inhibition with and without IPP supplementation (rescue). The following applies: for IPP rescue of parasite growth: 200 μM IPP supplementation. It counts as cell-based. How it is done: (§1) Asynchronous cultures of P. falciparum strain 3D7 were diluted to 1% parasitemia and cultured at indicated concentrations of inhibitor compounds in 100 μL culture volumes. During rescue experiments, parasite growth medium was supplemented with 200 μM isopentenyl pyrophosphate (IPP; Echelon Biosciences). After 72 hours, parasite growth was quantified using PicoGreen dye (Invitrogen) to measure DNA content as previously described. PicoGreen fluorescence was measured (485 nm excitation/528 nm emission) in a POLARStar Omega microplate reader (BMG Labtech).

The subject of series [4] is P. vivax IspD. Also noted: method as in PMID 24446431, PMID 21766403, PMID 22975264. The following applies: known IspD inhibitors, Fig. 2; cited from earlier work.
The test system of series [5] is P. falciparum IspD. Also noted: method as in PMID 26783558, PMID 25367906, PMID 24247137, PMID 25754494. The following applies: known IspD inhibitors, Fig. 2; cited from earlier work.
Series [6] has as its target PvIspD (Plasmodium vivax, UniProt A5K9U5). Nature of the series: IspD enzyme assay (EnzChek phosphate release), recombinant PvIspD. It counts as biochemical, P. vivax. Here is the method: (§2) Phosphate released by IspD was quantified using the EnzChek Phosphate Assay Kit (Invitrogen, Life Technologies), as previously described. 2-Amino-6-mercapto-7-methylpurine riboside (MESG) and purine nucleoside phosphorylase (PNP) were diluted and stored according to the manufacturer’s instructions. Final concentrations of reagents were as follows: 100 mM NaCl, 25 mM Tris pH 7.5, 7.5 mM MgCl2, 1 U/ml PNP, 0.1 U/mL yeast inorganic pyrophosphatase (New England Biolabs). […] Reactions were performed in 50 μL final volumes in 96-well clear flat bottom plates. In general, enzymes, buffers, and inhibitors were pre-warmed approximately 15 minutes at 37 °C, and reactions were then initiated by addition of the MEP substrate. […] Assays using E. coli IspD used 7.5 nM EcIspD-wt or 75 nM EcIspD-A14C. Absorbance at 360 nm was measured over time on a BMG POLARStar plate reader, preheated to 37 °C. Nonlinear regression analysis was performed using GraphPad Prism software. […] Slopes of changing absorbance values were converted to (μM MEP) (μM enzyme)^−1 s^−1 using a phosphate standard curve.

The test system of series [7] is P. falciparum strain 3D7. The experiment in a line: Parasite sensitivity assay (PicoGreen, 72 hours), strain 3D7. It counts as cell-based. The conditions noted are these: Plasmodium falciparum, mean and SEM, n ≥ 3, read-out: (3D7) EC50, P. falciparum growth in culture. How it is done: (§3) Unless otherwise specified, P. falciparum parasites were cultured as previously described, in a 2% suspension of human erythrocytes in RPMI-1640 medium (Sigma Aldrich) supplemented with 27 mM sodium bicarbonate, 11 mM glucose, 5 mM HEPES, 1 mM sodium pyruvate, 0.37 mM hypoxanthine, 0.01 mM thymidine, 10 μg ml^−1 gentamicin and 0.5% Albumax (Life Technologies). Cultures were maintained in 5% O2/5% CO2/90% N2 at 37 °C. Parasite growth was monitored by microscopy of Giemsa-stained parasites. 3D7 strain parasites were obtained from the Malaria Research and Reference Reagent Resource Center, ATCC, Manassas, Virginia. D6 and 7G8 strains were obtained through BEI Resources Repository, NIAID, NIH: Plasmodium falciparum, Strain D6, MRA-285, contributed by D.E. Kyle; Plasmodium falciparum, Strain 7G8, MRA-152, contributed by David Walliker. The IPC 5202 strain was provided by the Malaria Research and Reference Reagent Resource Center (MR4) for distribution by BEI Resources NIAID, NIH: Plasmodium falciparum, Strain IPC 5202, also known as CAM3.IR539T; MRA-1240, contributed by Didier Ménard.
as §1

In series [8] the target is PfIspD (Plasmodium falciparum, UniProt Q8I273). The experiment in a line: biochemical. The following applies: mean and SEM; n ≥ 3. How it is done: as §2
Series [9] deals with T1, EcIspD-wt (Escherichia coli, UniProt Q46893).
T1 construct: 6His; made in house; host or cells: Artic Express (DE3) RIL E. coli
The experiment in a line: IspD enzyme assay, recombinant EcIspD-wt. It counts as biochemical, E. coli. How it is done:
as §2

The test system of series [10] is P. falciparum strain D6. Nature of the series: Parasite sensitivity assay, strain D6 (mefloquine-resistant). It counts as cell-based. The conditions noted are these: Plasmodium falciparum, mean and SEM, read-out: Whole Cell Growth Inhibition EC50. Here is the method: as §3, with “The IPC 5202 strain was provided by the Malaria Research and Reference Reagent Resource Center (MR4) for distribution by BEI Resources NIAID, NIH: Plasmodium falciparum, Strain IPC 5202, also known as CAM3.IR539T; MRA-1240, contributed by Didier Ménard.” left out
(§4) Asynchronous cultures of P. falciparum strain 3D7 were diluted to 1% parasitemia and cultured at indicated concentrations of inhibitor compounds in 100 μL culture volumes. […] After 72 hours, parasite growth was quantified using PicoGreen dye (Invitrogen) to measure DNA content as previously described. PicoGreen fluorescence was measured (485 nm excitation/528 nm emission) in a POLARStar Omega microplate reader (BMG Labtech).

In series [11] the test system is P. falciparum strain 7G8. The experiment in a line: Parasite sensitivity assay, strain 7G8 (multidrug (chloroquine)-resistant). The format is cell-based. The conditions noted are these: Plasmodium falciparum, mean and SEM, read-out: Whole Cell Growth Inhibition EC50. Here is the method: as §3, with “The IPC 5202 strain was provided by the Malaria Research and Reference Reagent Resource Center (MR4) for distribution by BEI Resources NIAID, NIH: Plasmodium falciparum, Strain IPC 5202, also known as CAM3.IR539T; MRA-1240, contributed by Didier Ménard.” left out
as §4

The target in series [12] is T2, EcIspD-A14C (Escherichia coli, UniProt Q46893, A14C).
T2 construct: Amplicons containing the entire E. coli IspD gene were generated; 6His (N); made in house; host or cells: Artic Express (DE3) RIL E. coli
Nature of the series: IspD enzyme assay, recombinant EcIspD-A14C mutant. The format is biochemical, E. coli. How it is done: as §2

Series [13] concerns P. falciparum strain IPC 5202. Nature of the series: Parasite sensitivity assay, strain IPC 5202 (artemisinin-resistant). The conditions noted are these: Plasmodium falciparum, mean and SEM, read-out: Whole Cell Growth Inhibition EC50. It counts as cell-based. How it is done:
as §3, with “The IPC 5202 strain was provided by the Malaria Research and Reference Reagent Resource Center (MR4) for distribution by BEI Resources NIAID, NIH: Plasmodium falciparum, Strain IPC 5202, also known as CAM3.IR539T; MRA-1240, contributed by Didier Ménard.” left out
as §4

Series [14] concerns PfIspD-C202A. Nature of the series: IspD enzyme assay, recombinant PfIspD-C202A mutant. The format is biochemical, P. falciparum. The following applies: prolonged (50 min.) incubation. How it is done: as §2
Series [15] can be described thus: Calculated ClogD and aqueous solubility (AstraZeneca algorithms). The conditions noted are these: predicted values.

“Also recorded” adds a separate entry of the source.

Chain of PfIspD (Q8I273 entry or part of it): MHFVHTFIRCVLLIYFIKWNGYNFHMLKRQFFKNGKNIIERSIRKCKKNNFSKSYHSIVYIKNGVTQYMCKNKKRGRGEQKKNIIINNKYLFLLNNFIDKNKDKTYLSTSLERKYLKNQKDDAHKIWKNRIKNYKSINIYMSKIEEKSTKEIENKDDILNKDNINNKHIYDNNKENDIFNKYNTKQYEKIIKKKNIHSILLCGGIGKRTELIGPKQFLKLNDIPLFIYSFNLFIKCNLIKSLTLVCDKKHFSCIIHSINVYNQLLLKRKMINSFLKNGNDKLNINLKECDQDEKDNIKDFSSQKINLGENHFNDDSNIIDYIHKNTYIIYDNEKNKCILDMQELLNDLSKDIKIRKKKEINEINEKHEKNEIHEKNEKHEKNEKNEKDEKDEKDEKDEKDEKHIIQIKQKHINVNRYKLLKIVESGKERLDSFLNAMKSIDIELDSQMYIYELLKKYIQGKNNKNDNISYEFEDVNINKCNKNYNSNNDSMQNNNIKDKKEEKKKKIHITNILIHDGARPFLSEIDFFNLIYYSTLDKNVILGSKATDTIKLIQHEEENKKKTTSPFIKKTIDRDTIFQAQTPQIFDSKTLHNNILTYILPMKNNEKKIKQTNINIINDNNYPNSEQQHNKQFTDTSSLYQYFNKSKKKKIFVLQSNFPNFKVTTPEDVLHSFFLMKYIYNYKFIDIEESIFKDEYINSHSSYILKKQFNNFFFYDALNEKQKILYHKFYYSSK
Chain of PvIspD (A5K9U5 entry or part of it): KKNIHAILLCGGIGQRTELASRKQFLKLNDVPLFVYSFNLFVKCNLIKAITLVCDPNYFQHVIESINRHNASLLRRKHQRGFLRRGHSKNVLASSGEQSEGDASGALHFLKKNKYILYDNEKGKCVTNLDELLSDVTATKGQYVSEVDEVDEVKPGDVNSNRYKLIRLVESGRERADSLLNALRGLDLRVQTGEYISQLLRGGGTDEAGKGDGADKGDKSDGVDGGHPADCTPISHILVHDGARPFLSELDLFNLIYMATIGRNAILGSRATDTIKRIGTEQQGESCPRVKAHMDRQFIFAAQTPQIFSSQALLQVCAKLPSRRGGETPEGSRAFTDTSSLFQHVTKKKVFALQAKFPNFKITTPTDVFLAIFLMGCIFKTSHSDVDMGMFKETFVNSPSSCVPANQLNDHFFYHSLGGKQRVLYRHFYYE
T2 sequence (Q46893 whole entry A14C): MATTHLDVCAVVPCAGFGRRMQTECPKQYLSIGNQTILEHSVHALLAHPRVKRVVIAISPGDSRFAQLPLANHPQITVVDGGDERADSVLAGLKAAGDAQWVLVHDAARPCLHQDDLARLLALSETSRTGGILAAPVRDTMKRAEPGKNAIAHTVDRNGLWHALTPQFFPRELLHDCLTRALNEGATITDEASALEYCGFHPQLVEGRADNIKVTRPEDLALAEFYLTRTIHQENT
T1 sequence (Q46893 whole entry): as the sequence (Q46893 whole entry A14C) above, with C14A counted along it

With `Oc1c(Cc2ccccc2)c(Cl)cc2ncnn12` [3a], the IC50 in series [1] was 0.14 µM.

As for `N#Cc1cnn2c(O)c(Cc3ccccc3)c(Cl)cc12` [3b], the IC50 in series [1] is 0.035 µM.

Take `O=CN(O)CCCP(=O)(O)O` [FSM, fosmidomycin, reference compound]: the “MEcPP levels compared to untreated parasites” value in [2] is on record as “Significant decreases”. In addition, in [3], the “IPP rescue of parasite growth” value is reported as “rescue”.

Regarding `Oc1c(Br)cc(Br)cc1-c1[nH]c(Br)c(Br)c1Br` [compound 1], the IC50 in series [4] is 48 µM; in [1], 13 µM.

Regarding `COc1ccc2nc(NC(=O)c3cc(-c4ccccc4O)n[nH]3)sc2c1` [compound 2], the IC50 in series [1] is 1.8 µM.

Regarding `O=C(O)[C@@H]1Cc2c([nH]c3ccccc23)[C@@H](c2ccc(Cl)cc2Cl)N1` [compound 4, 1R,3S-MMV008138], the half-inhibitory concentration (IC50) in [5] was 0.047 µM.

With `Cc1ccc(-n2sc3ccccc3c2=O)cc1S(=O)(=O)N1CCOCC1` [compound 7], the 50% inhibitory concentration (IC50) in [6] turned out to be 0.045 ± 0.02 µM; in series [8] it was 0.45 ± 0.079 µM. Moreover, the concentration giving a half-maximal response (EC50) in series [7] was 4.3 ± 0.18 µM.

Regarding `COc1ccc(-c2cccc(-n3sc4ccccc4c3=O)c2)cc1` [compound 8, 2-(4’-methoxy-[1,1’-biphenyl]-3-yl)benzo[d]isothiazol-3(2H)-one], the “DOXP levels compared to untreated parasites” value in series [2] is given as “not affected”. In addition, the “MEcPP levels compared to untreated parasites” value in series [2] was “Significant decreases”. In addition, the “inhibition of recombinant EcIspD (wild type)” value in series [9] is given as “highly resistant to inhibition”. The concentration for a half-maximal effect (EC50) in series [10] was found to be 0.8 ± 0.12 µM; in series [3] (Plasmodium falciparum, 3D7, mean and SEM, n ≥ 3), 0.98 ± 0.24 µM; in series [11] it was 1.02 ± 0.25 µM; in series [13] it was 1.38 ± 0.19 µM. In series [3], the “IPP rescue of parasite growth” value is “did not observe rescue; also recorded: No rescue was observed”. Further, the concentration for half-maximal inhibition (IC50) in series [12] was 0.44 ± 0.048 µM. For the same molecule, the “decrease in sensitivity, PfIspD-C202A versus PfIspD-wt” value in series [14] turned out to be 6 fold.

Turning to `O=c1c2ccccc2sn1-c1cccc(-c2ccc(Cl)cc2)c1` [compound 9, 2-(4’-chloro-[1,1’-biphenyl]-3-yl)benzo[d]isothiazol-3(2H)-one], the IC50 in series [6] turned out to be 0.057 ± 0.013 µM; in [8], 0.073 ± 0.02 µM. In addition, the EC50 in series [7] was 1.1 ± 0.16 µM.

On to `O=c1c2ccccc2sn1-c1cccc(-c2ccc(C(F)(F)F)cc2)c1` [compound 10, 2-(4’-(trifluoromethyl)-[1,1’-biphenyl]-3-yl)benzo[d]isothiazol-3(2H)-one], for which the results for the IC50 in series [6] and in series [8] were 0.041 ± 0.018 µM and 0.27 ± 0.015 µM, respectively. The EC50 in series [7] was determined as 0.65 ± 0.021 µM.

For `CN1CCN(Cc2ccc(-c3cccc(-n4sc5ccccc5c4=O)c3)cc2)CC1` [compound 11, 2-(4’-((4-methylpiperazin-1-yl)methyl)-[1,1’-biphenyl]-3-yl)benzo[d]isothiazol-3(2H)-one], in series [15], the “increase in predicted aqueous solubility compared to 9” value is reported as 100 fold. Further, the IC50 in series [6] was determined as 0.062 ± 0.026 µM; in series [8], 0.44 ± 0.075 µM. In series [7], the EC50 is 0.42 ± 0.006 µM.

Consider `O=c1c2ccccc2sn1-c1cccc(-c2ccc(CN3CCC(F)CC3)cc2)c1` [compound 12, 2-(4’-((4-fluoropiperidin-1-yl)methyl)-[1,1’-biphenyl]-3-yl)benzo[d]isothiazol-3(2H)-one], for which the IC50 stood at 0.24 ± 0.1 µM in series [6] and 0.86 ± 0.11 µM in series [8]. In addition, in series [7], the EC50 was found to be 0.32 ± 0.092 µM.

As for `O=c1c2ccccc2sn1-c1cccc(-c2ccc(CN3CCOCC3)cc2)c1` [compound 13, 2-(4’-(morpholinomethyl)-[1,1’-biphenyl]-3-yl)benzo[d]isothiazol-3(2H)-one], the IC50 in series [6] was 0.05 ± 0.016 µM; in series [8] it was 0.4 ± 0.082 µM. Moreover, in series [7], the EC50 worked out at 0.41 ± 0.082 µM.
